Measured values as given in patent US12116343B2, “Inhibitors of APOL1 and methods of using same” (Vertex Pharmaceuticals Incorporated, priority 2020, dated 2024).
Read-outs that look alike come from different tables or passages of the source.

Target: T1, G1 APOL1 (Homo sapiens, UniProt O14791, I384M/S342G)
T1 construct: expressed in transfected cells
T1 sequence (O14791 28-398 S342G/I384M): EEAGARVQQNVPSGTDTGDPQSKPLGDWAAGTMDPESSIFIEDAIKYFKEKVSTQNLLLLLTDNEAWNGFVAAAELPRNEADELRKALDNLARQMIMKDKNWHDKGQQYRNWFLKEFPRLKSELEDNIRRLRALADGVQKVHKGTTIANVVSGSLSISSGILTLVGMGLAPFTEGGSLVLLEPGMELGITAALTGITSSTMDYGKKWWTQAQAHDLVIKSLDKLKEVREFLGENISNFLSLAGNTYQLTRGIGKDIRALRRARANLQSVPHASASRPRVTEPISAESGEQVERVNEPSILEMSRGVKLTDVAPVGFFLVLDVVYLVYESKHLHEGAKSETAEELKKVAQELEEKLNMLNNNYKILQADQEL
Test: Acute APOL1 Thallium Assay with inducible stable clones of HEK 293 cells
Format: cell-based
Settings: read-out: Thallium Assay (IC50)
Description: Acute APOL1 Thallium Assay with Inducible Stable Clones of HEK 293 Cells
Apolipoprotein L1 (APOL1) proteins form potassium-permeable cation pores in the plasma membrane. APOL1 risk variants (G1 and G2) induce greater potassium flux than G0 in HEK293 cells. This assay exploits the permeability of thallium (Tl+) through ligand-gated potassium channels. The dye produces a bright fluorescent signal upon binding to Tl+ conducted through potassium channels. The intensity of the Tl+ signal is proportional to the number of potassium channels in the open state. Therefore, it provides a functional indication of the potassium channel activities. During the initial dye-loading step, the Tl+ indicator dye as an acetoxymethyl (AM) ester enters the cells through passive diffusion. Cytoplasm esterases cleave the AM ester and relieve its active thallium-sensitive form. The cells are then stimulated with Tl+. The increase of fluorescence in the assay represents the influx of Tl+ into the cell specifically through the potassium channel (i.e. through APOL1 pores), providing a functional measurement of potassium channel/pore activity. The Thallium assay is conducted with cells expressing G1 APOL1.
APOL1 Cell Line (HEK T-Rex Stable Inducible Cell Line) • HEK T-Rex System • Tetracycline (Tet) inducible mammalian expression system. • Stably express the Tet repressor to regulate transcription. • Expression under the full-length CMV promoter. • APOL1 stable inducible cell line Clone used: G1 DC3.25
Tissue Culture Media • Cell Culture Medium • DMEM+10% FBS+P/S+5 μg/mL blasticidin+1 μg/mL puromycin. • 500 mL DMEM+55 mL FBS+5 mL P/S+280 μL blasticidin S HCl (10 mg/mL)+56 μL puromycin (10 mg/mL). • Cell Assay Medium • DMEM with 2% FBS+pen strep.
Instruments and Equipment • Nuaire cell culture hood, Cat. No. 540-600 • 37° C./5% CO2 incubator link to robotic arm, Liconic: STX110 • Molecular Devices FLIPR^Tetra High throughput cellular screening system, Cat. No. FT0324, Molecular Devices • ThermoFisher MultiDrop 384, Cat. No. 5840300 • Biotek Microfill, Cat. No. ASF1000A-4145 • BioRad TC10 cell counter, Cat. No. 145-0010 Assay Procedures
Cells Scaled Up from Frozen Vials • APOL1 G1 3.25 (HEK293 T-Rex) frozen vials: 5 million cells per vial • Step 1, Day 1: Defrost frozen vial into T-225. • Step 2, Day 5: (when 85% confluent): Split one T-225 at 3×10^6 cells per flask. • Step 3, Day 8: Splits cells to set up for the assay plates as described below.
T-Rex APOL1 HEK cells are split twice per week to keep the confluence state below 85% of the culture flask surface area. Cells can be kept until passage 25. • Cell Culture Medium • DMEM high glucose+10% FBS, +P/S, +5 μg/mL blasticidin, +1 μg/mL puromycin. • 500 mL DMEM, +55 mL FBS, +5 mL P/S, +280 μL blasicidin 10 mg/mL, +56 μL Puromycin 10 mg/mL. • Assay Media • Opti-MEM reduced serum medium from Invitrogen.
Preparation of Cell Assay Plates • Culture medium is removed from the x cm^2 T-flask by aspiration. • The cell monolayer is rinsed with PBS 1× at room temperature. PBS is removed by aspiration. • Cells are trypsinized using Trypsin. • The flasks are incubated at room temperature for 2-3 minutes. • Complete DMEM medium is then added. Cell suspension is then transferred to a 50 mL Falcon polypropylene tube. • Cells are then counted using a Biorad TC10 cell counter and the required amount of cells are centrifuged at 1200 RPM for 5 minutes. Required amount is 1.3×10^6 cells/mL APOL1 T-Rex HEK cells. • The pellet is suspended in the assay medium. • Using the MultiDrop, add 20 μL to each well (corresponds to 26000 cells total per well) of a 384-well black, transparent, flat bottom Poly-D coated plate. • Tetracycline as prepared in the following section is added to the cells before plating to induce APOL1 expression. • Plates are left at room temperature for 20 to 30 minutes before incubation at 37° C. and 5% CO2. […]

[1] = HEK 293 T-Rex cells expressing G1 APOL1

SMILES | IC50 (Table 24, Compounds 287 to 465) [nM] | IC50 [1] [nM]
O=C(NC1(CO)CC(F)(F)C1)C1CC(Cc2c(-c3ccc(F)cc3)[nH]c3c(F)cc(F)cc23)C1 (centres unmarked) [Compound 309] | > 1000 | –
CC(O)[C@H](CO)NC(=O)[C@H]1C[C@@H](c2c(-c3ccc(F)cc3)[nH]c3c(F)cc(F)cc32)C1 (some centres unmarked) [Compound 270] | – | > 1000
Cn1cnc(CNC(=O)C2(C)CC(c3c(-c4ccc(F)cc4)[nH]c4c(F)cc(F)cc34)C2)c1 (mixture of isomers) [Compound 282] | – | 250 to 1000
NC(=O)C(CO)NC(=O)[C@H]1C[C@@H](c2c(-c3ccc(F)cc3)[nH]c3c(F)cc(F)cc32)C1 (some centres unmarked) [Compound 259] | – | > 1000
COCC1(CNC(=O)C2CC(Cc3c(-c4ccc(F)cc4)[nH]c4c(F)cc(F)cc34)C2)CC1 (centres unmarked) [Compound 319] | > 1000 | –
Cc1ccn(CCNC(=O)[C@H]2C[C@@H](c3c(-c4ccc(F)cc4)[nH]c4c(F)cc(F)cc43)C2)n1 [Compound 263] | – | 250 to 1000
C[C@@H](CO)NC(=O)N[C@H]1C[C@H](c2c(-c3ccc(F)cc3)[nH]c3c(F)cc(F)cc32)C1 [Compound 295, 1-((1r,3S)-3-(5,7-difluoro-2-(4-fluorophenyl)-1H-indol-3-yl)cyclobutyl)-3-((S)-1-hydroxypropan-2-yl)urea] | 250 to 1000 | –
O=C(NCCO)C1CC(c2c(-c3ccc(F)cc3)[nH]c3c(F)cc(C(F)(F)F)cc23)C1 (centres unmarked) [Compound 279] | – | 250 to 1000
O=C(N[C@H]1CCOC1)[C@H]1C[C@@H](c2c(-c3ccc(F)cc3)[nH]c3c(F)cc(F)cc32)C1 [Compound 246] | – | > 1000
C[C@@H](O)CNC(=O)N[C@H]1C[C@H](c2c(-c3ccc(F)cc3)[nH]c3c(F)cc(F)cc32)C1 [Compound 296] | > 1000 | –
Cn1nccc1NC(=O)[C@H]1C[C@@H](c2c(-c3ccc(F)cc3)[nH]c3c(F)cc(F)cc32)C1 [Compound 247] | – | > 1000
O=C(N[C@H]1CCNC1=O)N[C@H]1C[C@H](c2c(-c3ccc(F)cc3)[nH]c3c(F)cc(F)cc32)C1 [Compound 297] | > 1000 | –
O=C(NC1CC(O)C1)[C@H]1C[C@@H](c2c(-c3ccc(F)cc3)[nH]c3c(F)cc(F)cc32)C1 (some centres unmarked) [Compound 239] | – | > 1000

The remaining lines, values ahead:

IC50 (Table 24, Compounds 287 to 465) [nM] | IC50 [1] [nM] | SMILES
250 to 1000 | – | C[C@H](CO)NC(=O)O[C@H]1C[C@H](c2c(-c3ccc(F)cc3)[nH]c3c(F)cc(F)cc32)C1 [Compound 354]
> 1000 | – | O=C(NCc1ccco1)O[C@H]1C[C@H](c2c(-c3ccc(F)cc3)[nH]c3c(F)cc(F)cc32)C1 [Compound 379]
> 1000 | – | O=C(NCC1(CO)CC1)C1CC(Cc2c(-c3ccc(F)cc3)[nH]c3c(F)cc(F)cc23)C1 (centres unmarked) [Compound 323]
> 1000 | – | O=C(NC1CCOC1)O[C@H]1C[C@H](c2c(-c3ccc(F)cc3)[nH]c3c(F)cc(F)cc32)C1 (some centres unmarked) [Compound 382]
> 1000 | – | CC1(C)CC(NC(=O)NC[C@H]2C[C@H](c3c(-c4ccc(F)cc4)[nH]c4c(F)cc(F)cc43)C2)C(=O)O1 (some centres unmarked) [Compound 403]
> 1000 | – | C[C@@H](O)CNC(=O)O[C@H]1C[C@H](c2c(-c3ccc(F)cc3)[nH]c3c(F)cc(F)cc32)C1 [Compound 369]
250 to 1000 | – | C[C@@H](CO)NC(=O)O[C@H]1C[C@H](c2c(-c3ccc(F)cc3)[nH]c3c(F)cc(F)cc32)C1 [Compound 357]
> 1000 | – | O=C(NC[C@H]1CC[C@@H](CO)O1)NC[C@H]1C[C@H](c2c(-c3ccc(F)cc3)[nH]c3c(F)cc(F)cc32)C1 [Compound 422]
> 1000 | – | O=C(NCC1CCOC1)O[C@H]1C[C@H](c2c(-c3ccc(F)cc3)[nH]c3c(F)cc(F)cc32)C1 (some centres unmarked) [Compound 384]
> 1000 | – | COC1(CNC(=O)C2CC(Cc3c(-c4ccc(F)cc4)[nH]c4c(F)cc(F)cc34)C2)CCOC1 (centres unmarked) [Compound 343]
< 250 | – | CNC(=O)CNC[C@H]1C[C@H](c2c(-c3ccc(F)cc3)[nH]c3c(F)cc(F)cc32)C1 [Compound 446]
> 1000 | – | C[C@@H](O)CNC(=O)NC[C@H]1C[C@H](c2c(-c3ccc(F)cc3)[nH]c3c(F)cc(F)cc32)C1 [Compound 407]
> 1000 | – | CC1(O)CC(NC(=O)C2CC(Cc3c(-c4ccc(F)cc4)[nH]c4c(F)cc(F)cc34)C2)C1 (centres unmarked) [Compound 325]
